Legend:
[1] = In vivo actinide chelation and removal compared with CaNa3-DTPA; set-up: species or system mice
Source text: (§1) In vivo Efficacy. […] For example, the efficiency of 3,4,3-LI-1,2-HOPO for clearing circulating Pu from mouse tissues ranges from 100 times (skeleton) to 240 times (soft tissues) that of CaNa3-DTPA in five different protocols. In addition, the optimal activity dose of 3,4,3-LI-1,2-HOPO for removing newly deposited Pu from mice is 2.5% of the dose of CaNa3-DTPA used clinically. The tetradentate 5-LIO-Me-3,2-HOPO has potential therapeutic value for Pu, U, Am and Np, and its efficiency for clearing circulating Pu from mouse tissues ranges from 5 times (skeleton) to 15 times (liver) that of CaNa3-DTPA.
(§2) Oral Activity. Both compounds are orally active actinide chelators: when administered orally to mice or beagles after a Pu injection, 3,4,3-LI-1,2-HOPO and 5-LIO-Me-3,2-HOPO can remove up to 80% and 60%, respectively, of the injected Pu.

[2] = Pharmacokinetic studies using 14C-labeled ligands; assay type: in vivo
[3] = Oral removal of injected Pu; assay type: in vivo; conditions: administered orally to mice or beagles after a Pu injection
Source text: as §2

[4] = Actinide decorporation in mice after iv 233U(VI) injection, single or combined HOPO ligands; assay type: in vivo, Swiss-Weber mice
Method: (§3) Ligand Combination. […] Tetradentate 5-LIO(Me-3,2-HOPO), HOPO (2), is structurally suitable for chelating Np(V) and U(VI). Treatment is likely to be delayed in human contamination with dispersed radionuclides. Those conditions were approached, using mice, by ligand injection ip at 24 h or oral administration at 1 or 24 h after an iv actinide injection. Dosages of (1) and (2) were, respectively, 30 and 100 μmolkg^−1 ip and 100 and 200 μmolkg^−1 oral. Because mixtures of radionuclides may be released, (1) and (2) were combined to take advantage of their differing efficacies for the actinides. Dosages of combined (1) and (2) were, respectively, 30 plus […] injected ip and […] oral. Actinides in all mouse tissues and excreta were determined using published methods.
(§4) Tetradentate 5-LIO(Me-3,2-HOPO), HOPO (2), is structurally suitable for chelating Np(V) and U(VI). Treatment is likely to be delayed in human contamination with dispersed radionuclides. Those conditions were approached, using mice, by ligand injection ip at 24 h or oral administration at 1 or 24 h after an iv actinide injection. Dosages of (1) and (2) were, respectively, 30 and 100 μmolkg-1 ip and 100 and 200 μmolkg-1 oral. Because mixtures of radionuclides may be released, (1) and (2) were combined to take advantage of their differing efficacies for the actinides. Dosages of combined (1) and (2) were, respectively, 30 plus 100 μmolkg-1 injected ip and 100 and 200 μmolkg-1 oral. Actinides in all mouse tissues and excreta were determined using published methods.
(§5) Objective: to assay the efficacy of the two ligands at promoting radionuclide excretion with prompt or delayed administration, as single or combined treatments, and to identify target organs and excretion pathways. The test system used Swiss-Weber mice (˜35 g). Actinide loading involves intravenous injection of An-citrate complex at t0. Samples of later taken of the whole skeleton, liver, kidneys, bulk soft tissues, urine, and feces (Σ=100%). (See Table 1.)

[5] = Clearing Pu from mouse tissues relative to CaNa3-DTPA; assay type: in vivo
Source text: as §1

[6] = Actinide decorporation in mice after iv 237Np(V) injection, single or combined HOPO ligands; assay type: in vivo, Swiss-Weber mice
Method: as §3, §4, §5

[7] = Actinide decorporation in mice after iv 238Pu(IV) injection, single or combined HOPO ligands; assay type: in vivo, Swiss-Weber mice; conditions: ligand injected ip at 24 h
Method: as §3
(§6) Tetradentate 5-LIO(Me-3,2-HOPO), HOPO (2), is structurally suitable for chelating Np(V) and U(VI). Treatment is likely to be delayed in human contamination with dispersed radionuclides. Those conditions were approached, using mice, by ligand injection ip at 24 h or oral administration at 1 or 24 h after an iv actinide injection. Dosages of (1) and (2) were, respectively, 30 and 100 μmolkg-1 ip and 100 and 200 μmolkg-1 oral. […] Actinides in all mouse tissues and excreta were determined using published methods. […]

[8] = Actinide decorporation in mice after iv 241Am(III) injection, single or combined HOPO ligands; assay type: in vivo, Swiss-Weber mice; conditions: ligand injected ip at 24 h
Method: as §3, §6

[9] = Actinide decorporation in mice, all actinides and protocols, comparison of treatments; set-up: species or system Swiss-Weber mice; conditions: mouse
Method: as §3, §6

## Cn1ccc(C(=O)NCCOCCNC(=O)c2ccn(C)c(=O)c2O)c(O)c1=O [5-LIO(Me-3,2-HOPO)]
[1]
  removing newly deposited Pu, Np, Am and U from mice, compared with CaNa3-DTPA: significantly more effective
[2]
  stability to metabolic degradation: stable to metabolic degradation
[3]
  injected Pu removed: ≤ 60%
[4]; ligand given orally at 1 h
  U(VI) excretion: about 115 % control
  kidney U(VI): 50 % control
[4]; ligand injected ip at 24 h
  U(VI) excretion: about 3 times control
  kidney U(VI): 45 % control
[4]; oral treatment at 24 h
  kidney U(VI): 70 % control
[5]; liver
  efficiency for clearing circulating Pu from mouse tissues, liver: 15 times that of CaNa3-DTPA
[5]
  efficiency for clearing circulating Pu from mouse tissues, skeleton: 5 times that of CaNa3-DTPA
[6]; ligand given orally at 1 h
  Np(V) excretion: about 115 % control
  liver Np(V): 25 % control
[6]; ligand injected ip at 24 h
  Np(V) excretion: about 3 times control
  liver Np(V): 30 % control
[6]; oral treatment at 24 h
  liver Np(V): 50 % control

## O=C(NCCCN(CCCCN(CCCNC(=O)c1cccc(=O)n1O)C(=O)c1cccc(=O)n1O)C(=O)c1cccc(=O)n1O)c1cccc(=O)n1O [3,4,3-LI(1,2-HOPO)]
[1]
  removing newly deposited Pu, Np, Am and U from mice, compared with CaNa3-DTPA: significantly more effective
[1]; mouse, in vivo
  Pu, Np, Th, Am and Cf chelation in vivo: highly effective
[2]
  stability to metabolic degradation: stable to metabolic degradation
[3]
  injected Pu removed: up to 80%
[5]; mice
  optimal activity dose for removing newly deposited Pu from mice: 2.5 % of the dose of CaNa3-DTPA used clinically
[5]
  efficiency for clearing circulating Pu from mouse tissues, skeleton: 100 times that of CaNa3-DTPA
[5]; soft tissues, five different protocols
  efficiency for clearing circulating Pu from mouse tissues, soft tissues: 240 times that of CaNa3-DTPA
[7]
  reduction of liver and skeleton actinide, Pu(IV): appreciable and significant reductions
[8]
  reduction of liver and skeleton actinide, Am(III): appreciable and significant reductions
[9]
  in vivo chelation of Pu(IV) and Am(III): highly effective

Reference: patent US20120214843A1, “Combination Treatment of Hydroxpyridonate Actinide/Lanthanide Decorporation Agents” (priority 2009, published 2012)
